Measured values taken from PubChem BioAssay (NCI).
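Compound exposure: 48 hours, 5 concentrations, 96-well plates. At the GI50, growth is halved. TGI denotes the concentration required for complete inhibition of growth.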

Assays:
Assay in all cases: inhibition of tumour cell growth, NCI panel, 48 h
NCI-H23 lung = system: NCI-H23 lung
U251 CNS = system: U251 CNS
SW-620 colon = system: SW-620 colon
KM12 colon = system: KM12 colon
OVCAR-3 ovarian = system: OVCAR-3 ovarian
PC-3 prostate = system: PC-3 prostate
M14 melanoma = system: M14 melanoma
K-562 leukemia = system: K-562 leukemia
LOX IMVI melanoma = system: LOX IMVI melanoma
NCI-H460 lung = system: NCI-H460 lung
COLO 205 colon = system: COLO 205 colon
HCT-116 colon = system: HCT-116 colon
HCT-15 colon = system: HCT-15 colon
IGROV1 ovarian = system: IGROV1 ovarian
A498 renal = system: A498 renal
OVCAR-8 ovarian = system: OVCAR-8 ovarian
TK-10 renal = system: TK-10 renal
UACC-257 melanoma = system: UACC-257 melanoma
OVCAR-4 ovarian = system: OVCAR-4 ovarian
SK-OV-3 ovarian = system: SK-OV-3 ovarian
NCI-H226 lung = system: NCI-H226 lung
RPMI-8226 leukemia = system: RPMI-8226 leukemia
SF-539 CNS = system: SF-539 CNS
SK-MEL-2 melanoma = system: SK-MEL-2 melanoma
CCRF-CEM leukemia = system: CCRF-CEM leukemia
CAKI-1 renal = system: CAKI-1 renal
SK-MEL-28 melanoma = system: SK-MEL-28 melanoma
HOP-62 NSCLC = system: HOP-62 NSCLC
SNB-19 CNS = system: SNB-19 CNS
SN12C renal = system: SN12C renal
RXF 393 renal = system: RXF 393 renal
NCI-H522 lung = system: NCI-H522 lung
HT29 colon = system: HT29 colon
A549 NSCLC = system: A549 NSCLC
NCI/ADR-RES ovarian = system: NCI/ADR-RES ovarian
SR leukemia = system: SR leukemia
T-47D breast = system: T-47D breast
MDA-MB-435 = system: MDA-MB-435
SNB-75 CNS = system: SNB-75 CNS
HS 578T breast = system: HS 578T breast
SF-268 CNS = system: SF-268 CNS
786-0 renal = system: 786-0 renal
HL-60(TB) leukemia = system: HL-60(TB) leukemia
ACHN renal = system: ACHN renal
HCC-2998 colon = system: HCC-2998 colon
MOLT-4 leukemia = system: MOLT-4 leukemia
HOP-92 NSCLC = system: HOP-92 NSCLC
MCF7 breast = system: MCF7 breast
UO-31 renal = system: UO-31 renal
SK-MEL-5 melanoma = system: SK-MEL-5 melanoma
UACC-62 melanoma = system: UACC-62 melanoma
MALME-3M melanoma = system: MALME-3M melanoma
DU-145 prostate = system: DU-145 prostate
OVCAR-5 ovarian = system: OVCAR-5 ovarian
BT-549 breast = system: BT-549 breast
MDA-MB-231 breast = system: MDA-MB-231 breast
SF-295 CNS = system: SF-295 CNS

Cc1[nH]nc2c1N=C(c1ccccc1F)c1cc(C(N)=O)ccc1N2 was tested, and the GI50 (NCI-H23 lung) was 6.85 µM, the TGI (NCI-H23 lung) was over 25 µM and the GI50 (U251 CNS) was 0.71 µM. For the same compound, the TGI (U251 CNS) was 10.2 µM, the GI50 (SW-620 colon) was 2.34 µM and the TGI (SW-620 colon) was over 25 µM. For the same compound, the GI50 (KM12 colon) was 1.32 µM, the TGI (KM12 colon) was over 16.3 µM and the GI50 (OVCAR-3 ovarian) was 2.14 µM. It also gave a TGI (OVCAR-3 ovarian) of over 20.1 µM, a GI50 (PC-3 prostate) of 2.26 µM and a TGI (PC-3 prostate) of over 25 µM. For the same compound, the GI50 (M14 melanoma) was 7.86 µM, the TGI (M14 melanoma) was over 25 µM and the GI50 (K-562 leukemia) was 1.72 µM. It also gave a TGI (K-562 leukemia) of over 25 µM, a GI50 (LOX IMVI melanoma) of 2.04 µM and a TGI (LOX IMVI melanoma) of 13.2 µM. The GI50 (NCI-H460 lung) was 3.33 µM, the TGI (NCI-H460 lung) was over 25 µM and the GI50 (COLO 205 colon) was 2.3 µM. The TGI (COLO 205 colon) was 6.61 µM, the GI50 (HCT-116 colon) was 1.02 µM and the TGI (HCT-116 colon) was over 25 µM. The GI50 (HCT-15 colon) was 4.69 µM, the TGI (HCT-15 colon) was over 25 µM and the GI50 (IGROV1 ovarian) was 8.29 µM. For the same compound, the TGI (IGROV1 ovarian) was over 22.5 µM, the GI50 (A498 renal) was 1.08 µM and the TGI (A498 renal) was 6.02 µM. The GI50 (OVCAR-8 ovarian) was 5.77 µM, the TGI (OVCAR-8 ovarian) was over 25 µM and the GI50 (TK-10 renal) was 3.61 µM. It also gave a TGI (TK-10 renal) of 16.3 µM, a GI50 (UACC-257 melanoma) of 9.15 µM and a TGI (UACC-257 melanoma) of over 25 µM. For the same compound, the GI50 (OVCAR-4 ovarian) was 5.25 µM, the TGI (OVCAR-4 ovarian) was over 25 µM and the GI50 (SK-OV-3 ovarian) was 6.43 µM. It also gave a TGI (SK-OV-3 ovarian) of over 25 µM, a GI50 (NCI-H226 lung) of 0.852 µM and a TGI (NCI-H226 lung) of 6.38 µM. It also gave a GI50 (RPMI-8226 leukemia) of over 25 µM, a TGI (RPMI-8226 leukemia) of over 25 µM and a GI50 (SF-539 CNS) of 0.621 µM. The TGI (SF-539 CNS) was 3.54 µM, the GI50 (SK-MEL-2 melanoma) was 2.45 µM and the TGI (SK-MEL-2 melanoma) was 7.14 µM. For the same compound, the GI50 (CCRF-CEM leukemia) was 1.15 µM, the TGI (CCRF-CEM leukemia) was over 14.9 µM and the GI50 (CAKI-1 renal) was 3.83 µM. For the same compound, the TGI (CAKI-1 renal) was over 19.7 µM, the GI50 (SK-MEL-28 melanoma) was 5.79 µM and the TGI (SK-MEL-28 melanoma) was over 24.1 µM. For the same compound, the GI50 (HOP-62 NSCLC) was 3.79 µM, the TGI (HOP-62 NSCLC) was 24.4 µM and the GI50 (SNB-19 CNS) was 6.43 µM. For the same compound, the TGI (SNB-19 CNS) was over 25 µM, the GI50 (SN12C renal) was 4.2 µM and the TGI (SN12C renal) was over 25 µM. For the same compound, the GI50 (RXF 393 renal) was 0.975 µM, the TGI (RXF 393 renal) was 6.15 µM and the GI50 (NCI-H522 lung) was 2.19 µM. It also gave a TGI (NCI-H522 lung) of over 19.6 µM, a GI50 (HT29 colon) of 4.92 µM and a TGI (HT29 colon) of over 25 µM. It also gave a GI50 (A549 NSCLC) of 7.56 µM, a TGI (A549 NSCLC) of over 25 µM and a GI50 (NCI/ADR-RES ovarian) of over 25 µM. The TGI (NCI/ADR-RES ovarian) was over 25 µM, the GI50 (SR leukemia) was 0.191 µM and the TGI (SR leukemia) was 8.2 µM. It also gave a GI50 (T-47D breast) of 2.89 µM, a TGI (T-47D breast) of over 15.8 µM and a GI50 (MDA-MB-435) of 7.35 µM. The TGI (MDA-MB-435) was over 25 µM, the GI50 (SNB-75 CNS) was 0.0838 µM and the TGI (SNB-75 CNS) was 1.69 µM. For the same compound, the GI50 (HS 578T breast) was 0.511 µM, the TGI (HS 578T breast) was 7.25 µM and the GI50 (SF-268 CNS) was 2.22 µM. For the same compound, the TGI (SF-268 CNS) was 8.46 µM, the GI50 (786-0 renal) was 2.82 µM and the TGI (786-0 renal) was over 25 µM. For the same compound, the GI50 (HL-60(TB) leukemia) was 5.97 µM, the TGI (HL-60(TB) leukemia) was 14.4 µM and the GI50 (ACHN renal) was 3.3 µM. For the same compound, the TGI (ACHN renal) was over 22.9 µM, the GI50 (HCC-2998 colon) was 8.51 µM and the TGI (HCC-2998 colon) was over 25 µM. For the same compound, the GI50 (MOLT-4 leukemia) was 6.63 µM, the TGI (MOLT-4 leukemia) was 22 µM and the GI50 (HOP-92 NSCLC) was 7.12 µM. For the same compound, the TGI (HOP-92 NSCLC) was over 25 µM, the GI50 (MCF7 breast) was 0.592 µM and the TGI (MCF7 breast) was over 20 µM. The GI50 (UO-31 renal) was 4.31 µM, the TGI (UO-31 renal) was over 21.1 µM and the GI50 (SK-MEL-5 melanoma) was 3.11 µM. For the same compound, the TGI (SK-MEL-5 melanoma) was 9.03 µM, the GI50 (UACC-62 melanoma) was 4.11 µM and the TGI (UACC-62 melanoma) was 9.17 µM. For the same compound, the GI50 (MALME-3M melanoma) was 18.3 µM, the TGI (MALME-3M melanoma) was over 25 µM and the GI50 (DU-145 prostate) was 6.71 µM. The TGI (DU-145 prostate) was over 25 µM, the GI50 (OVCAR-5 ovarian) was 9.61 µM and the TGI (OVCAR-5 ovarian) was over 22.3 µM. For the same compound, the GI50 (BT-549 breast) was 2.9 µM, the TGI (BT-549 breast) was 12.8 µM and the GI50 (MDA-MB-231 breast) was 6.8 µM. The TGI (MDA-MB-231 breast) was over 25 µM, the GI50 (SF-295 CNS) was 1.28 µM and the TGI (SF-295 CNS) was 24.9 µM.
